# Experimental data taken from US9607202B2, “Methods of generating trophectoderm and neurectoderm from human embryonic stem cells” (UNIVERSITY OF PITTSBURGH—OF THE COMMONWEALTH SYSTEM OF …, priority 2009, dated 2017).
# B1: noggin: BMP4 antagonist protein; mouse recombinant noggin (protein, UniProt P97466 28-232, looked up)
# Noggin: QHYLHIRPAPSDNLPLVDLIEHPDPIFDPKEKDLNETLLRSLLGGHYDPGFMATSPPEDRPGGGGGPAGGAEDLAELDQLLRQRPSGAMPSEIKGLEFSEGLAQGKKQRLSKKLRRKLQMWLWSQTFCPVLYAWNDLGSRFWPRYVKVGSCFSKRSCSVPEGMVCKPSKSVHLTVLRWRCQRRGGQRCGWIPIQYPIISECKCSC
# Key:
# [1] = system: pluripotent hESCs, line H7; test: TE-induction and lineage selectivity of hESCs by transcription factor immunostaining (CDX2, brachyury, GATA6, OCT4); type: cell-based, human
# Description: Pluripotent hESCs, line H7, were grown on mitomycin-treated MEFs (GlobalStem) at normal-density (120,000 cells/6 cm^2), maintained in DSR media (Table 1), and passaged weekly using Collagenase IV (Invitrogen/Gibco) and StemPro®EZPassage™ (Invitrogen) as directed. Cell colonies were briefly spun, resuspended in DSR, and plated onto normal density MEFs in CM (Table1). For TE-directed differentiation, hESCs were passaged at 1:5 dilution onto low-density MEFs (30,000 cells/6 cm^2) using DSR media minus FGF2 supplemented with BMP4 (Invitrogen, PHC7914) 100 ng/mL. Media was changed daily.
# Feeder-free hESCs were grown on Geltrex (Invitrogen)-coated plates in StemPro (Invitrogen), passaged weekly with Collagenase IV or Accutase (StemCell Technologies) as directed, resuspended in StemPro and plated onto Geltrex-coated plates. For TE-directed differentiation pluripotent hESCs maintained in StemPro or in Erb's Minimal Induction Media (EMIM) were passaged onto feeder-free, Geltrex-coated plates into respective basal media supplemented with the activin A antagonist, SB431542 (10 uM), and/or BMP4 (100 ng/mL or 500 ng/mL) as indicated. Media was changed daily. Terminal STB differentiation was accomplished by culturing hESCs in EMIM+SB+100 ng/mL BMP4 for 14 days.
# In PBS, cell colonies were fixed with 2% paraformaldehyde, permeabilized with 1% Triton X-100 (Sigma, St. Louis Mo.), and non-specific antibody binding blocked with 10% goat serum. Primary antibodies (Table 2) were diluted in 1% goat serum, spun briefly, and incubated overnight at 37° C. After a wash in PBS-Tween 0.05% a species-specific fluorescent secondary antibody (prepared as above) was added for 60 min at 37° C. Cells were washed in PBS-Tween 0.05%, incubated in Hoechst […] (1:10,000), and mounted in Gelvatol polyvinyl alcohol-based media (Sammak et al., 1987).
# Nuclear labeling (Hoechst 33342) facilitates automated image segmentation for counting cell number. Since pluripotent hESCs can differentiate along multiple lineages, TE-differentiation was determined by immunostaining for transcription factors localized to the cell's nucleus or cytoplasm (Table 2). Four color microscopy permits co-labeling of cells with markers of pluripotent hESCs (OCT4), TE cells (CDX2), and alternative markers for early differentiation including neurectoderm (nestin), mesoderm (brachyury), or extraembryonic endoderm
# (GATA6). TE-induction was determined by two criteria: 1) the percentage of all cells that were CDX2-positive and the fold change of CDX2-nuclear intensity over control, unstimulated cells. […] TE selectivity was determined by a significant percentage of CDX2-positive cells and a suppression of the percentage of nestin-, brachyury-, and GATA6-positive cells.
# 96-well Microplates were scanned using the 5 or 10× objective on the ArrayScan V Automated image analysis was performed using the Compartmental Analysis BioApplication using Hoechst for identification of nuclei and various transcription factor antibodies (Table 2). Nuclear-specific fluorescence intensity was determined from approximately 300 single cells per well from 3-6 independent wells to produce a well-average nuclear intensity for each measurement Mean and standard deviation were calculated from multiple wells. Fold change of the mean intensities were normalized against matched unstimulated external controls, usually the pluripotent condition, to divide out differences due to efficiency of antibody-antigen binding and chromophore quantum yield. […] Select conditions are additionally compared in bar graph format to show standard deviations and T-tests.
# hESCs [2] = test: hESC viability and OCT4 expression in minimal induction media; type: cell-based, human
# Description: Thus, to maintain compatibility with StemPro-cultured hESC, a DMEM/F12-based minimal induction media (MIM, Table 1) was developed by testing short-term hESC viability (FIG. 7) and OCT4 expression (FIG. 2) after systematically reintroducing cell survival, but not pluripotency, components.
# One criterion for derivation of a minimal induction media was that hESCs would be viable and continue to express the OCT4 pluripotency marker. […] A second criterion for the derivation of a minimal induction media was that hESC would remain competent to differentiate.
# hESCs (line UCO6 (HSF6)) = test: Neuronal differentiation of hESCs on different surfaces; type: cell-based, human
# Description: (§1) All coverslips (Fisher scientific, Pittsburgh, Pa.) were adhered onto the bottom of 24-well plate with Kwik Sil (World Precision Instruments, Inc., Sarasota, Fla.). Before cell seeding, the surface of coverslips were sterilized under UV for 30 min, and then immersed into PBS for 30 min. Laminin (BD Biosciences, San Jose, Calif.) coated glass coverslips were also prepared as control substrates for cell culture.
# hESCs, line HSF6 obtained from the University of California-San Francisco and WiCell, respectively were approved by the University of Pittsburgh ESCRO committee with IRB exempt approval. hESCs were maintained in ES-DMEM high glucose with 20% KSR, 1% MEM NEAA (WiCell Research Institute, Madison, Wis.), Pen/Strep (10,000 U/10,000 ug), 1% L-Glutamine (2 mM), and 8 ng/mL bFGF (Invitrogen, Carlsbad, Calif.), and passaged in 50-100 cell clusters as recommended. hESCs were grown on mitomycin-treated MEFs prepared from 14-day CF-1 embryos. Media was changed every other day and colonies were mechanically passaged every […] with a Pasteur pipette. […]
# (§2) Neuronal differentiation was detected by anti-βIII tubulin for hESCs, anti-NF200 for rNSCs. […]
# rNSCs = test: Neuronal differentiation of rNSCs cultured on different surfaces; type: cell-based, rat
# Description: as §1, with “culture. […]” for “culture.”
# as §2
# For rNSCs, neuronal cells (NF200 positive) were counted on the whole coverslips and averaged values across all coverslips were presented as mean±SD. Total cell number was calculated from the number of nuclei. Cell nuclei were counted on ten randomly selected images, averaged, divided by image area and then multiplied by the area of coverslip. […] Cell density was calculated by dividing values of cell number by the image area. Neurite length was measured using Image J and plug-in Neuron J. Length of the primary neurite and all neurites of each cell in each group was measured by tracing the neurites of NF200 positive cells with the tracing algorithm contained in Neuron J. Primary neurite was defined as the longest process out of cell body. […]
# hESC = test: Neurectoderm differentiation from hESCs in noggin media; type: cell-based, human; details: small colonies from StemPro
# Description: There are several laboratories that have applied the BMP4 antagonist noggin for differentiation of hESC to neurectoderm or neural stem cells (Ying, Stavridis et al. 2003; Gerrard, Rodgers et al. 2005; Yao, Chen et al. 2006; Cohen, Itsykson et al. 2007). Here, small colonies grown in StemPro are used as the starting material. Cells were plated in StemPro media or neural differentiation media (DMEM/F12 media supplemented with N2/B27). After each day of growth, colonies with the smallest colonies were changed into Noggin media. When colonies grown in noggin had differentiated along a neurectoderm lineage, the cells were fixed for immunostaining. If the colonies had not differentiated, the media was changed and the cells remained in Noggin media for another day. The process was repeated each day for 6-7 days. Cells were immunostained with the following antibodies: Pax6 mouse (Santa Cruz), Otx2 rabbit (Abeam), Nestin mouse (Covance), Alexa 488 goat anti mouse green, Cy3 goat anti rabbit red, Cy5 goat anti mouse far red.
# hESCs [3] = test: Terminal differentiation to syncytia (percentage of bi- or multi-nucleated cells); type: cell-based, human; details: neurectoderm culture conditions induced by noggin
# [4] = short-term treatment in StemPro (SB or low-dose BMP4 alone)
molecule,measurement,setting,value
"NC(=O)c1ccc(-c2nc(-c3ccc4c(c3)OCO4)c(-c3ccccn3)[nH]2)cc1 [SB, SB431542]",brachyury expression,[1]; [4],significant increase in brachyury expression
OCCS [β-mercaptoethanol],hESC survival,hESCs [2]; addition to minimal induction media with or without heparin,reduced hESC survival
"BMP4: bone morphogenic protein (BMP4), TGFβ superfamily member",fraction of cell population induced to non-TE lineages,[1]; 100 ng/mL BMP4 in MIM,over half of the cell population
same,TE-induction efficiency as frequency of CDX2 staining,"[1]; BMP4, monolayer colonies, DSR/MEF culture (low density MEFs minus FGF2), 7 days",3.6%
same,TE-induction efficiency as frequency of CDX2 staining,"[1]; BMP4, multilayer colonies, DSR/MEF culture, 7 days",44.4%
same,increase in percent brachyury (T) positive cells,[1]; BMP4 added to StemPro for 48 hours,6 fold
same,CDX2 induction,"[1]; BMP4 alone 500 ng/mL in EMIM, day 2",Significant CDX2 induction
same,extraembryonic endoderm (GATA6) positive cells,[1]; BMP4 in MIM,~20%
same,mesoderm (brachyury) positive cells,[1]; BMP4 in MIM,over 40%
same,OCT4 expression,[1]; BMP4 supplementation on low density MEFs,decreased OCT4 expression
same,CDX2 expression,"[1]; BMP4 supplementation to EMIM, culture day 7",induced diffuse CDX2 expression
same,GATA6 over MIM alone,[1]; BMP4 supplementation to MIM,did not increase
same,brachyury over MIM alone,[1]; BMP4 supplementation to MIM,did not increase
same,fold induction of CDX2 over MIM alone,[1]; BMP4 supplementation to MIM,significantly increased
same,TE-induction efficiency as frequency of CDX2 staining,"[1]; StemPro containing BMP4, MEF-free, 4 days",93.7%
same,brachyury expression,[1]; addition of BMP4 to StemPro,"dose-dependent, statistically significant increase"
same,brachyury expression,[1]; [4],significant increase in brachyury expression
heparin,hESC viability,hESCs [2]; basal media once BMP4 was supplemented,improve hESC viability
laminin,number of cells per colony,hESCs (line UCO6 (HSF6)); end of the second week (14 days),indistinguishable
same,adhesion and spreading of hESC embryoid bodies/colonies,"hESCs (line UCO6 (HSF6)); feeder-free, within the first week",adhered
same,percentage of neurons (NF200 positive cells),rNSCs; 7 d,higher percentage of neurons
same,percentage of neurons (NF200 positive cells),rNSCs; 14 d,higher percentage of neurons
B1,efficiency of producing Nestin-positive cells,hESC,~100%
same,time to produce Nestin-positive cells,hESC,3 to 7 days
same,multinucleated cells,hESCs [3],absent
